Results as given in patent US20250332249A1, “CYTOM[…] CELL EPITOPES AND USES THEREOF” (LA JOLLA INSTITUTE FOR IMMUNOLOGY, priority 2021, published 2025).
Where no end group is shown, it is not given here.

System: PBMCs from HCMV seropositive subjects
Assay: ex vivo IFN-γ Fluorospot assay
Type: cell-based, human
Details: 19 HCMV seropositive subjects, individual peptide 10 ug/ml, 20 hr; for No. of subjects responding: IFN-γ; for Magnitude of response: IFN-γ spots (FIG. 1: SFC/10^6 PBMC; no unit in table)
Method: To define the targets of HCMV-specific T cell epitopes recognized in healthy adults, the inventors screened PBMCs of 19 subjects, 10 males and 9 females, recruited from San Diego blood bank (SDBB). The HCMV seropositivity of all the subjects was confirmed by IgG ELISA (FIG. 6A). A total of 2593 HCMV peptides covering a total of 563 ORFs (1) were tested. However, as many of these predicted ORFs overlapped 100% with others, as they were internal to longer ORFs, these 563 contained 359 completely unique ORFs composed of ˜150“canonical” ORFs, and an additional ˜200 identified by ribosomal RNA profiling (1). These peptides corresponded to predicted dominant epitopes, based on a bioinformatic method that predicts promiscuous binding to HLA class II molecules (40). Each of the ORFs above was covered by multiple predicted epitopes (with a minimum of at least 2), with the exception of very small ORFs (less than 15-20 amino acid residues), in which case at least one peptide was synthetized. The 2593 peptides were arranged in 89 pools of 28-30 15-mer peptides. PBMC reactivity of each of the 89 pools was assayed directly ex vivo using an IFN-γ Fluorospot assay.
For the initial CMV ORF screen, the responses of 19 CMV-seropositive subjects were evaluated. PBMCs were stimulated with 89 pools covering 563 ORFs of HCMV. Each pool comprised of 28-30 15-mer peptides overlapping by 10 residues. PBMCs that were found reactive to a pool were further tested against individual peptides contained in the pool using IFN-γ Fluorospot assay.
PBMC were thawed, washed and counted for viability using the trypan blue exclusion method. 200,000 cells were plated in triplicates and stimulated with pools (2 ug/ml) or peptides (10 ug/ml), PHA (10 ug/ml) or medium containing equivalent amount of DMSO in 96-well plates (Immubilion-P, Millipore) previously coated with anti IFN-γ antibody (1-DIK, Mabtech, Stockholm, Sweden). After 20 hr incubation at 37° C., cells were discarded and wells were washed six times with PBS/0.05% Tween 20 using an automated plate washer and further incubated with IFN-γ antibody (7-B6-1-FS-BAM) for 2 hrs at room temperature. After incubation, wells were washed and incubated with fluorophore conjugated anti-BAM-490 antibody for 1 hr at room temperature. Finally, the plates were washed and incubated with fluorescence enhancer for 15 min, blotted dry and fluorescent spots were counted by computer assisted image analysis (IRIS Fluorospot reader, Mabtech, Sweden).
Each pool or peptide was considered positive compared to the background that had equivalent amount of DMSO based on the following criteria: (i) 20 or more spot forming cells (SFC) per 10^6 PBMC after background subtraction, (ii) the stimulation index greater than 2, and (iii) p<0.05 by student's t test or Poisson distribution test

| Substance | No. of subjects responding | Magnitude of response |
| --- | --- | --- |
| 218 (GLYLRQYDPPALRTY) [compound 218] | 2 | 633 |
| 193 (FCVYRYNARLTRGYV) [compound 193] | 3 | 700 |
| 203 (VYLWYVRRQLVAFCL) [compound 203] | 3 | 253 |
| 196 (PTWSTTVNAHNSFLH) [compound 196] | 1 | 47 |
| 23 (DFLRVVRQQDAFICT) [compound 23] | 2 | 174 |
| 102 (GALTLVIPSWHVFAS) [compound 102] | 2 | 190 |
| 202 (WKYAKKLNYHYFRLR) [compound 202] | 1 | 237 |
| 76 (QLQFTYDTLRGYINR) [compound 76] | 3 | 2236 |
| 105 (SWLGQMLRPVGLCTL) [compound 105] | 1 | 43 |
| 4 (GLWVSSYLVRRPMTI; ends and bridges not checked) [compound 4] | 2 | 890 |
| 90 (VELCLGAGAGHVVVV) [compound 90] | 1 | 383 |
| 75 (GLVVFWQGIKQKSLV) [compound 75] | 1 | 53 |
| 78 (KELSKINPSAILSAI) [compound 78] | 3 | 18557 |
| 170 (VLCCYVLEETSVMLA) [compound 170] | 1 | 93 |
| 197 (DRLSTLAATMCMFDY) [compound 197] | 1 | 53 |
| 149 (CDLPLVSSRLLPETS) [compound 149] | 1 | 123 |
| 52 (IQTMELMIRTVPRIT) [compound 52] | 2 | 384 |
| 25 (GVSSVTLLKIFSQVP) [compound 25] | 2 | 220 |
| 24 (ICVARLQAQPSSRHI) [compound 24] | 1 | 37 |
| 20 (IINYYYVAQKKARHM) [compound 20] | 1 | 163 |

| Substance | No. of subjects responding | Magnitude of response |
| --- | --- | --- |
| 17 (FCRRFFFPDRPDFFL) [compound 17] | 1 | 107 |
| 28 (LHCMRYLTSSLVKRY) [compound 28] | 1 | 150 |
| 232 (ITFCLYVGQFLAYVR) [compound 232] | 1 | 27 |
| 63 (AFKLDLLRMIAVSRT) [compound 63] | 2 | 477 |
| 38 (RRTVLFNELMLWLGY; ends and bridges not checked) [compound 38] | 1 | 180 |
| 208 (PQRLLLTALAIWQRT) [compound 208] | 1 | 983 |
| 92 (MQKYFSLDNFLHDYV) [compound 92] | 2 | 20343 |
| 169 (EERDKVLTHIDHIFM) [compound 169] | 2 | 107 |
| 207 (RWQFAVCAASKTATR) [compound 207] | 1 | 50 |
| 214 (MLVVTVFDTTRLFEI) [compound 214] | 1 | 840 |
| 180 (VVVGIVLCLSLASTV) [compound 180] | 1 | 1417 |
| 138 (AAITVVPVITQSRLA) [compound 138] | 3 | 450 |
| 19 (KFVLQDFDVQHLRRL) [compound 19] | 1 | 40 |
| 181 (SPVAAELPHPSPAPM) [compound 181] | 2 | 166 |
| 70 (YQKVLTFRRSYAYIH) [compound 70] | 1 | 40 |
| 96 (TAVSEFMKNTHVLIR) [compound 96] | 1 | 747 |
| 1 (NGIRWQYQELQYLVE) [compound 1] | 2 | 222 |
| 88 (SLLILVVLLLIYRCC) [compound 88] | 1 | 23 |
| 137 (LEERDEWVRSLAVDA) [compound 137] | 1 | 47 |
| 235 (GLVYRELHDFYGYLQ) [compound 235] | 1 | 963 |

| Substance | No. of subjects responding | Magnitude of response |
| --- | --- | --- |
| 206 (IRRWWISVAIVIFIG) [compound 206] | 3 | 10480 |
| 40 (KELRMCLSFDSNYCR; ends and bridges not checked; cysteine pairing not given here) [compound 40] | 1 | 127 |
| 12 (ARRLWILSLLAVTLT; ends and bridges not checked) [compound 12] | 1 | 100 |
| 168 (CSPDEIMSYAQKIFK) [compound 168] | 2 | 194 |
| 9 (ALFTHFVGRPRHCRL) [compound 9] | 1 | 57 |
| 194 (TRGYVRYTLSPKARL) [compound 194] | 7 | 9337 |
| 86 (TMRSVFEMQRIRHGA) [compound 86] | 1 | 67 |
| 104 (SSCAHTTCRSATSLV) [compound 104] | 2 | 104 |
| 224 (LFRAGLMKVYVRRRY) [compound 224] | 1 | 870 |
| 116 (RVTGLVFSVVFSVSL) [compound 116] | 4 | 6380 |
| 21 (ALALHFLTSRKGVTD) [compound 21] | 1 | 40 |
| 187 (LHRRAAVSGRRSLLQ) [compound 187] | 1 | 87 |
| 14 (KDRCLVIRRRWRLVR) [compound 14] | 1 | 60 |
| 85 (RVGITIQQLNVYHQL) [compound 85] | 1 | 963 |
| 91 (RSSWRASCVEVPKKP) [compound 91] | 1 | 370 |
| 11 (PSVRMDFRARRPLRR) [compound 11] | 3 | 1740 |
| 166 (RVDMVRHRIKEHMLK) [compound 166] | 2 | 250 |
| 27 (EAYVRINAGQVLPVV) [compound 27] | 1 | 1853 |
| 200 (LSVRYLSLTAYMLLA) [compound 200] | 1 | 1200 |
